This is an account of results in a melting point compilation (Tetko et al.; mined from patent text by program, amines drawn as free bases though some values may be those of a salt).

The melting point is the temperature, or range, at which the solid turns liquid. For `O=S(=O)(c1ccccc1)C1CCC(COc2ccc(F)cc2)O1` (racemic), the melting point lay in the range of 102 to 104 °C. Next, `Cc1cccc(-c2nc(C(C)C)[nH]c2-c2ccc(F)c(-c3cnn(C(C)C)c3)c2)n1`: 84 to 85 °C; `COc1cccc(C(=O)Nc2ccc(N3CCN(CC(N)=O)CC3)cc2)c1-c1ccc(C(C)C)cc1`: 207 to 209 °C; `COc1ccc(Cc2cnc(N)nc2N)cc1OCCCNS(=O)(=O)c1ccc(NC(C)=O)cc1`: 96 to 98 °C. For `Cc1nc(N)nc(N)c1N1CCN(c2ccc(S(=O)(=O)N(C)C)cc2)CC1`, the melting point lay in the range of 301 to 304 °C. In turn, `CC(=O)OCC1=C(C(=O)O)N2C(=O)C(=NSc3ccc(C)cc3)C2SC1` (centres undefined) registered a melting point of 204 to 206 °C. For `CCOC(C)OC(C)(C)CCCC(C)C1CCC2C3CC=C4CC(O)CC(O)C4(C)C3CCC12C` (centres undefined) the value was 128 to 130 °C.

`COC(=O)COc1ccc(C(=O)CCCl)cc1` displayed a melting point of 89 to 90 °C. Regarding `CCCCOc1cc(C(=O)O)n(Cc2ccc(C(F)(F)F)cc2Cl)n1`, the melting point was in the range of 158 to 160 °C. For `CCS(=O)(=O)c1ccc(C(=O)NCc2ccc3c(c2)CN(C2CCC(=O)NC2=O)C3=O)cc1` (centres undefined) the value was 222 to 224 °C; for `CCOP(=O)(OCC)C1CCc2c([N+](=O)[O-])c(C(F)(F)F)cc3[nH]c(=O)c(=O)n1c23` (centres undefined), 254 °C; for `COc1cc(Nc2nccc(-c3ccc(N)cc3)n2)cc(OC)c1OC`, 195 °C. For `[N-]=[N+]=NC(C(=O)O)c1ccsc1` (centres undefined) the value was 58 to 59 °C.

As for `O=C(O)c1cccc([N+](=O)[O-])c1O`, the melting point was found to be 123 °C. Next, `Clc1ccc(OCOCOc2ccc(Cl)cc2)cc1`: 53.5 to 54 °C; `Cc1cc(Cl)ccc1Oc1cccc(-c2ncccn2)n1`: 105 °C; `Nc1nc(O)c2ccnc-2[nH]1`: > 300 °C.

On to `CCCc1nn(CC)c2c(=S)[nH]c(-c3ccccc3OCC)nc12`, for which the melting point was in the range of 130 to 131 °C. For `CN(C/C=C\COCC(=O)O)c1cnc(-c2ccccc2)c(-c2ccccc2)n1` the value was 128 to 130 °C. Next, `CCc1nc2c(N)nc3ccccc3c2n1CCCCS(=O)(=O)NC`: 190 to 191 °C; `Cc1sc(-c2ccccc2)nc1CCC(=O)c1ccc(CC2SC(=O)NC2=O)s1` (centres undefined): 164 to 166 °C. For `Cc1cc(C)c(Nc2nc(C)ncc2S(=O)(=O)c2ccc(-c3ncc[nH]3)cc2)c(C)c1` the value was 282 to 284 °C. `CC(C)(C)OC(=O)N1CCC(O)(c2ccc(Oc3ccc(NC(=O)c4ccc(Cl)c(Cl)c4)cc3)cc2)CC1` came in with a melting point of 208 to 209 °C. In turn, `COC(C)=Nc1nc[nH]c1C#N` displayed a melting point of 147 to 149 °C. Regarding `CS(=O)(=O)c1ccc(C(CC2CCCC2)C(=O)Nc2nccs2)cc1F` (centres undefined), the melting point is 200 to 202 °C. For `CSc1nc2ccccc2c(-c2ccccc2)c1C(=O)N(C)Cc1cc(C(F)(F)F)cc(C(F)(F)F)c1` the value was 144 to 145 °C. In turn, `O=S1CCC(c2ccccc2)(c2ccccc2)CC1` had a melting point of 122 °C. Next, `CCCCCCCCS(=O)(=O)C(Cc1ccc(OCCN2CCCCC2)cc1)C(=O)NO` (centres undefined): 69 to 70 °C; `CCOc1ccc2c(=O)c(-c3nnnn3C)cn(C)c2c1`: 214 to 217 °C; `Cc1cc(C)cc(SCC(=O)c2ccc(C(C)C)cc2)c1`: 46 to 47 °C. As for `O=C(OC1c2nccnc2C(=O)N1c1ccc(Cl)cn1)N1CCNCC1` (centres undefined), the melting point is 205 °C. Next, `CC(=O)c1c(Cl)c(Cl)c([N+](=O)[O-])c2c1OCCO2`: 181 to 182 °C; `COC(=O)c1cccc(-c2cc(-c3ccccc3)on2)c1`: 99 to 100 °C. Next, `O=C(NCCO[N+](=O)[O-])c1csc(C(=O)NCCO[N+](=O)[O-])n1`: 136 to 138 °C; `CCOC(=O)c1[nH]c(C)c(C)c1OCCCl`: 81 to 83 °C. Next, `FC(F)(F)c1ccc(C=Nc2c3c(nc4ccccc24)CCCC3)cc1`: 203 to 205 °C; `COCC1=C(C(=O)NCCCN2CCC(c3ccc(F)cc3)CC2)C(c2ccc(F)c(F)c2)NC(=O)N1` (single isomer, unassigned; (-)): 149 to 150 °C.

`O=C(O)CN(CC(=O)O)C(=O)c1cc(OCCCCCCCCCCCCOc2ccccc2)ccc1OCc1ccccc1` showed a melting point of 70 to 75 °C. Consider `O=C(Nc1ccc(-n2nc(C(F)(F)F)cc2C(F)(F)F)cc1)c1c(F)cccc1Cl`, for which the melting point was in the range of 165 to 167 °C. For `COC(=O)c1cc(OC)c([N+](=O)[O-])cc1N` the value was 127 to 129 °C.

For `CCCn1nc(C#N)cc1CC(C)(C)NC(=O)OC(C)(C)C`, the melting point lay within 115 to 116 °C. The compound `CCCN(C)c1nc(N)nc2c1ncn2C1CC(F)C(CO)O1` (centres undefined) showed a melting point of 80 to 84 °C. `COC1=NS(=O)(=O)N(Cc2ccccc2)C(=O)N1` gave a melting point of 141 to 144 °C. For `CCOC(=O)COC(=O)c1cc(-n2nc3ccc(Cl)cn3c2=O)c(F)cc1Cl` the value was 62 to 65 °C. For `Cc1cc(Br)cc(C)c1N[N+](=O)[O-]` the value was 129 to 131 °C; for `N#Cc1cnc2c(sc3ccccc32)c1Nc1ccc(Oc2ccccc2)cc1`, 230 to 233 °C.

In turn, `O=c1ccc(-c2ccc(Cl)cc2)c[nH]1` registered a melting point of 183 to 186 °C. Next, `Cc1cc(-c2sc(N3CCN(CC4CC4)C3=O)nc2C)n[nH]1`: 231 to 233 °C; `O=C1c2ccccc2COc2ccc(CCCCl)cc21`: 69 to 72 °C.

With `CCC(O)c1ncn2c1CN(C)C(=O)c1ccccc1-2` (centres undefined), the melting point lay within 145 to 147 °C.

`CCCN(Cc1ccc(-c2ccccc2-c2nnn[nH]2)cc1)c1ncncc1C(=O)OCC`: the melting point was 160 to 162 °C. For `O=C(OCCO)c1ccc(C(=O)OCCO)cc1` the value was 108 to 110 °C; for `ON=Cc1ccccc1OCc1ccc(Cl)cc1`, 122 to 124 °C; for `COc1cc(OC)cc(N2CCN(C(=O)N(c3nc4ccccc4nc3OC)C(C)C)CC2)c1`, 110 to 112 °C. For `CN1CCN(C2=Cc3ccccc3Oc3ccccc3C2)CC1` the value was 127 °C. For `Cn1cc(-c2cccc(N3CCc4c(cc5n4CCCC5)C3=O)c2CO)nc(Nc2ccc3c(c2)CNCC3)c1=O` the value was 218 to 220 °C; for `COC(=O)C1Oc2ccc(F)cc2C(C)(c2ccccc2)O1` (centres undefined), 95 °C; for `Cn1cncc1C(O)(c1ccc(Cn2cnnn2)cc1)c1ccc2c(c1)c(-c1cccc(Cl)c1)cc(=O)n2C` (centres undefined), 160 °C. Compound `O=C1OCCN1N=C1CCOc2ccc([N+](=O)[O-])cc21` had a melting point of 168 to 170 °C. For the compound `OCCOc1c(Br)cc(Br)c2cccnc12`, the melting point fell in the range of 128 to 131 °C. For `N#Cc1ccc(N(Cc2ccc(O)c(Br)c2)n2cnnc2)cc1-c1ccccc1` the value was 218 to 220 °C; for `Clc1ccc(-c2nc(COc3ccc(CCCn4ccnc4)cc3)co2)cc1`, 116 to 117 °C. Next, `CCOC(=O)c1ccc(OCC(O)COc2cccc(O)c2C(C)=O)cc1` (centres undefined): 104 to 106 °C; `Nc1ccc(-c2nc(Cl)c3c(=O)[nH][nH]c(=O)c3c2N)cc1`: > 300 °C; `O=CN=C1SCCN1Cc1ccc(Cl)nc1`: 99 to 100 °C. `CCOC(=O)C(C)(C)c1ccc(C2=NC(C)(C)Cc3cc(OC)c4c(c32)CC(C)(C)O4)cc1` yielded a melting point of 150 to 151 °C. In turn, `CC(C)CC(SC1CCCCC1)c1c(O)cc(-c2ccccc2)oc1=O` (centres undefined) displayed a melting point of 210 to 212 °C. For `COc1ccc(Nc2ccc(O)cc2)c(CO)c1` the value was 96.5 to 97 °C; for `Cc1nn(C)c(NC(=O)Nc2ccccc2)c1C1=CCCCC1`, 203 °C; for `Cc1ccc(C2COc3c(C)c(C)c(Br)c(C)c32)nc1` (centres undefined), 105 to 106 °C.

The compound `Cc1oc(-c2ccccc2)nc1COc1ccc(COc2ccc(Cl)cc2CC(=O)O)cc1` showed a melting point of 160 to 161 °C.

Take `Cc1cc(C(=CNc2ccc(O)cc2)C(=O)c2ccccc2)on1`: the melting point was 73 to 74 °C. For `COc1ccc(C(C)N(C)CCCOc2ccc(S(=O)(=O)c3ncsc3-c3ccccc3)cc2)cc1OC` (centres undefined), the melting point was found to be 162 °C. As to `COc1ccc(C(=O)Nc2ccc3ccc(Br)nc3n2)cc1`, the melting point was 221 °C. For `CC(C)N=C(NC#N)NCCN1CCC(C(=O)c2ccc(F)cc2)CC1` the value was 158 to 160 °C. Compound `CCn1c2ccc(C(C)=O)cc2c2cc(C(C)=O)ccc21` had a melting point of 184 to 190 °C. Next, `CN(C)C=C1CC(=O)c2ccccc2NC1=O`: 203 to 205 °C; `CCCCNC(=O)c1ccc(F)c2c1CC(N(CCCc1c[nH]c3ccc(F)cc13)C1CCC1)CO2` (centres undefined): 106 °C; `COc1ccc(OCC(O)CN2CCN(c3ccccc3C(=O)O)CC2C)c(C(C)(C)C)c1` (centres undefined): 205 to 208 °C.

Regarding `CSC(=S)NCc1c(Cl)cccc1Cl`, the melting point was 47 °C.

On to `CC[C@H](C)[C@H](N)C(=O)N[C@@H](Cc1ccc(OC(C)(C)C)cc1)C(=O)N[C@@H](C)C(=O)NCc1c(OC)ccc2c1Oc1c(ccc(OC)c1CC(=O)O)C2(C)C`, for which the melting point lay in the range of 146 to 149 °C. Next, `NCc1ccc(S(=O)(=O)c2ccc(S(N)(=O)=O)s2)cc1`: 225 to 228 °C. The compound `O=C(O)c1ccc(CO/N=C/c2cc3ccccc3n2Cc2ccccc2)cc1Br` showed a melting point of 148 to 149 °C. For `CCCCCCCCCCCCC(C)(CS(=O)(=O)O)C(=O)O` (centres undefined) the value was 84 to 85 °C; for `COc1ccc(-n2c(C)ccc2C)c(F)c1`, 67 to 69 °C; for `CCOC(=O)C1Cc2cc3c(C)noc3c(Cl)c2O1` (centres undefined), 123 to 124 °C. Next, `COC(=O)c1c(OC)ccc(N)c1OC`: 78 to 80 °C.

Compound `COC(=O)COc1cc(C(C)=O)c(O)c2ccccc12` displayed a melting point of 123 to 124 °C. As for `COC(=O)[C@H](Cc1ccc(I)cc1)NC(C)=O`, the melting point lay in the range of 118 to 120 °C.
